In publication PMC8138013, “Rational design of innate defense regulator peptides as tumor vaccine adjuvants” (NPJ Vaccines, 2021):

How the values were obtained:
JAWSII cells [1] = experiment: RT-qPCR of transcription factor mRNA after DP7, with or without chemical inhibitors; format: cell-based, mouse; conditions: for effect of inhibitor on DP7-induced mRNA expression of transcription factors: pretreatment 1 h at 10 μM (BIBR796 5 μM) or PTX 200 ng/ml 3 h, then DP7 30 min, compared to DP7 alone
Protocol: [The procedure below names another cell line; the source lists this cell line under the same test.] Small molecule inhibitors were employed to elucidate the upstream signaling pathways involved in the expression of 6 transcription factors: selumetinib (MEK1/2 inhibitor), BIBR796 (p38α inhibitor), sp600125 (pan JNK inhibitor), XMD8-92 (Erk5 inhibitor), sotrastaurin (PKCθ inhibitor), AS-605240 (PI3Kγ inhibitor), LY294002 (PI3Kα/β/γ inhibitor) and pertussis toxin (PTX, Gi protein inhibitor). BMDCs were pretreated with 10 μM selumetinib, 5 μM BIBR796, 10 μM sp600125, 10 μM XMD8-92, 10 μM sotrastaurin, 10 μM AS-605240, and 10 μM LY294002 at 37 °C for 1 h and with 200 ng/ml PTX at 37 °C for 3 h. BMDCs were exposed to DP7 at 37 °C for 30 min, and then the mRNA expression of the transcription factors was examined by RT-qPCR.
Total RNA was isolated using TRIzol reagent (Takara, Otsu, Japan), further purified by isopropanol/ethanol precipitation and finally dissolved in RNase-Free H2O. cDNA was prepared with 5× All-In-One MasterMix with the AccuRT Genomic DNA Removal Kit (Abm Canada Inc., Milton, ON, Canada) and employed as a template to assess the expression of various genes with EvaGreen 2× qPCR MasterMix (Abm Canada Inc., Milton, ON, Canada). The results were analyzed according to the relative expression normalized against β-actin.

JAWSII cells [2] = experiment: Intracellular calcium measurement (Fluo 3-AM); format: cell-based, mouse; conditions: DP7 40 µg/ml, 15 and 30 min
Protocol: JAWSII cells (1 × 10^5) were seeded into 96-well clear–bottom black plates (Corning, New York, USA.) with six replicate wells per condition and cultured at 37 °C overnight. The cells were washed once with Hank’s buffer followed by incubation with the calcium fluorescence probe Fluo 3-AM (5 μM; excitation at 506 nm and emission at 526 nm) (Beyotime, Hangzhou, China) in Hank’s buffer at 37 °C for 30 min. After treatment, the cells were washed once with Hank’s buffer and subsequently stimulated with DP7 (40 µg/ml) for 15 min or 30 min. Fluorescence was measured by a Celligo® imaging cytometer. The Ca^2+ levels are represented by the mean fluorescence intensity of individual cells.

JAWSII cells [3] = experiment: Western blotting of Erk1/2 phosphorylation in JAWSII cells; format: cell-based, mouse
Description: Protein extracts from each sample were separated by 12% SDS-PAGE and transferred onto polyvinylidene fluoride membranes (Millipore, Billerica, MA). The membranes were blocked with 5% non-fat milk. Then, the protein bands were probed with primary antibodies against NF-κB p65 XP® Rabbit mAb (clone D14E12; Cell Signaling Technology Cat#8242), Phospho-NF-κB p65 (Ser536) Rabbit mAb (clone 93H1; Cell Signaling Technology Cat#3033), Erk1/2 Rabbit mAb (clone 137F5; Cell Signaling Technology Cat#4695) and Phospho- Erk1/2 (Thr202/Tyr204) XP® Rabbit mAb (clone D13.14.4E; Cell Signaling Technology Cat#4370) overnight at 4 °C. Then the membranes were incubated with horseradish peroxidase-conjugated goat anti-rabbit IgG (1:3000; Cell Signaling Technology Cat#7074). The blots derive from the same experiment were processed in parallel. The full, uncropped blot with molecular weight marker are shown in Supplementary Fig. 9.

BMDCs [4] = experiment: RNA-Seq analysis of BMDCs challenged with DP7; format: cell-based, mouse; conditions: DP7 30 min vs control
C57BL/6 mice = experiment: Leukocyte recruitment to peritoneal lavage; format: in vivo, mouse; conditions: C57BL/6, 200 μg i.p., 24 h post-injection, N = 5, vs saline
Protocol: C57BL/6 mice (N = 5) were intraperitoneally injected with 200 μg DP7, DP8, or DP10. An equal volume of sterile saline served as a control. Cells in the peritoneal lavage were collected and counted at 24 h postinjection. To analyze the recruitment of leukocytes, cells were stained with PE-anti-mouse-GR-1(clone RB6-8C5; BD Biosciences Cat# 553128), APC-anti-mouse-F4/80 (clone T45-2342; BD Biosciences Cat# 566787) or PE-anti-CD11b (clone M1/70; BD Biosciences Cat# 557397) at 4 °C for 30 min and then detected using a BD FACSCalibur (BD Biosciences, San Jose, CA). Neutrophils, inflammatory monocytes and macrophages were gated as Gr1^+F4/80^−, F4/80^+Gr1^+, and F4/80^+CD11b^+ cells, respectively.

BMDCs [5] = experiment: BMDC maturation surface markers (flow cytometry); format: cell-based, mouse; conditions: CD11c+ BMDCs, 16 h, DP7 40 µg/ml, CpG 20 µg/ml
Protocol: To study the effect of the CpG/DP7 complex on BMDCs, BMDCs were incubated with DP7 (40 µg/ml), CpG (20 µg/ml) or the CpG/DP7 combination for 16 h, stained with APC-anti-Mouse CD11c (Clone HL3; BD Biosciences Cat# 550261), FITC-anti-mouse-CD40 (Clone 3/23; BD Biosciences Cat# 561845), PerCP-Cy5.5-anti-mouse-CD80(clone 16-10A1; BD Biosciences Cat# 560526) or FITC-anti-mouse-CD86 (clone GL1; BD Biosciences Cat# 561962). BMDCs were gated as CD11c^+ and analyzed for CD40, CD80, CD86 expression by NovoExpress software (ACEA Biosciences, Inc.).

GPR35 = experiment: Receptor internalization assay; format: cell-based, mouse; conditions: BMDCs, DP7 40 μg/ml, 30 min, immunofluorescence; similar in JASWII and RAW264.7 cells
Protocol: BMDCs (1 × 10^5) were plated on a microscope cover glass and cultured at 37 °C overnight. The next day, the cells were stimulated with 40 μg/ml DP7 at 37 °C for 30 min and then fixed in 4% paraformaldehyde in PBS at room temperature for 15 min. After washing with PBS 3 times, the BMDCs were blocked and permeabilized in buffer containing 0.1% bovine serum albumin (BSA), 0.5% Triton X-100, and 4% goat serum in PBS for 1 h. Afterward, the BMDCs were incubated with goat anti-GPR35 (clone M-14; Santa Cruz Biotechnology Cat# sc-79507; 1:100) in 3% BSA/PBS buffer at 4 °C for 16 h, followed by staining with the FITC-labeled anti-goat IgG (H + L) secondary antibody (1:100, ZSGB-BIO, Beijing, China) in 3% BSA/PBS buffer at 37 °C for 1 h. BMDCs were finally stained with DAPI and stored at 4 °C until imaging. Confocal imaging was performed with an LSM 800 Zeiss confocal microscope.

Molecule: O=C1NC(=O)/C(=C\c2ccc3nccnc3c2)S1 [AS-605240]
- effect of inhibitor on DP7-induced mRNA expression of transcription factors (JAWSII cells [1]): significantly suppressed

Molecule: Cc1ccc(-n2nc(C(C)(C)C)cc2NC(=O)Nc2ccc(OCCN3CCOCC3)c3ccccc23)cc1 [BIBR796]
- effect of inhibitor on DP7-induced mRNA expression of transcription factors (JAWSII cells [1]): little or no inhibitory effect

Molecule: O=c1cc(N2CCOCC2)oc2c(-c3ccccc3)cccc12 [LY294002]
- effect of inhibitor on DP7-induced mRNA expression of transcription factors (JAWSII cells [1]): little or no inhibitory effect

Molecule: CCOc1cc(N2CCC(O)CC2)ccc1Nc1ncc2c(n1)N(C)c1ccccc1C(=O)N2C [XMD8-92]
- effect of inhibitor on DP7-induced mRNA expression of transcription factors (JAWSII cells [1]): little or no inhibitory effect

Molecule: Cn1cnc2c(F)c(Nc3ccc(Br)cc3Cl)c(C(=O)NOCCO)cc21 [selumetinib]
- effect of inhibitor on DP7-induced mRNA expression of transcription factors (JAWSII cells [1]): significantly suppressed

Molecule: CN1CCN(c2nc(C3=C(c4c[nH]c5ccccc45)C(=O)NC3=O)c3ccccc3n2)CC1 [sotrastaurin]
- effect of inhibitor on DP7-induced mRNA expression of transcription factors (JAWSII cells [1]): significantly suppressed

Molecule: Oc1c2ccccc2c2c3c(cccc13)N=N2 [sp600125]
- effect of inhibitor on DP7-induced mRNA expression of transcription factors (JAWSII cells [1]): little or no inhibitory effect

Molecule: VQWRIRVAVIRK [DP7]
- intracellular Ca2+ levels (JAWSII cells [2]): elevation
- Erk1/2 phosphorylation (JAWSII cells [3]; JAWSII cells, DP7 30 and 60 min, western blotting): enhancement
- Fold change, Akap9 (BMDCs [4]): 2.08
- Fold change, Arap2 (BMDCs [4]): 2.02
- Fold change, Atxn1l (BMDCs [4]): 2.04
- Fold change, Btg2 (BMDCs [4]): 2.47
- Fold change, Ccdc77 (BMDCs [4]): 2.06
- Fold change, Ccno (BMDCs [4]): 2.1
- Fold change, Clec4b2 (BMDCs [4]): 2.82
- Fold change, Depdc5 (BMDCs [4]): 2.01
- Fold change, Dgkh (BMDCs [4]): 2.4
- Fold change, Egr1 (BMDCs [4]): 16.63
- Fold change, Egr2 (BMDCs [4]): 2.4
- Fold change, Egr3 (BMDCs [4]): 15.7
- Fold change, Ethe1 (BMDCs [4]): 2.89
- Fold change, F3 (BMDCs [4]): 2.23
- Fold change, Fbxw7 (BMDCs [4]): 2.25
- Fold change, Fos (BMDCs [4]): 6.34
- Fold change, Fosb (BMDCs [4]): 114.79
- Fold change, Gm6377 (BMDCs [4]): 2.68
- Fold change, Gm9159 (BMDCs [4]): 2.03
- Fold change, Gm12359 (BMDCs [4]): 2.13
- Fold change, Gpr35 (BMDCs [4]): 2.2
- Fold change, Gpr52 (BMDCs [4]): 3.32
- Fold change, Gsta1 (BMDCs [4]): 3.08
- Fold change, Ier2 (BMDCs [4]): 3.15
- Fold change, Igj (BMDCs [4]): 2.68
- Fold change, Jmjd1c (BMDCs [4]): 2.09
- Fold change, Klhl15 (BMDCs [4]): 3.73
- Fold change, Lmo1 (BMDCs [4]): 2.81
- Fold change, Lrrc40 (BMDCs [4]): 2.19
- Fold change, Nr4a1 (BMDCs [4]): 19.81
- Fold change, Nr4a2 (BMDCs [4]): 2.02
- Fold change, Osm (BMDCs [4]): 2.42
- Fold change, Parp6 (BMDCs [4]): 2.3
- Fold change, Perp (BMDCs [4]): 2.05
- Fold change, Phf8 (BMDCs [4]): 2.17
- Fold change, Plk3 (BMDCs [4]): 2.75
- Fold change, Prph (BMDCs [4]): 2.22
- Fold change, Prrg4 (BMDCs [4]): 2.05
- Fold change, Slc38a9 (BMDCs [4]): 2.15
- Fold change, Suco (BMDCs [4]): 2.19
- Fold change, Szt2 (BMDCs [4]): 2.01
- Fold change, Tjp1 (BMDCs [4]): 3.44
- Fold change, Tmem51 (BMDCs [4]): 2.05
- Fold change, Tnfaip6 (BMDCs [4]): 2.01
- Fold change, Trib1 (BMDCs [4]): 2.69
- expression of Egr1, Egr2, Egr3, c-Fos, Fosb and Nr4a1 mRNA (JAWSII cells [1]; DP7 40 μg/ml, 30 min, vs nonstimulated): elevated expression
- number of macrophages in the peritoneal lavage (C57BL/6 mice): modest but nonsignificant increase
- numbers of monocytes and neutrophils in the peritoneal lavage (C57BL/6 mice): significant increase
- CD40-FITC positive BMDCs (BMDCs [5]): 1.1%
- CD80-PerCP-Cy5.5 positive BMDCs (BMDCs [5]): 28.9%
- CD86-FITC positive BMDCs (BMDCs [5]): 36.2%
- GPR35 localisation after stimulation (GPR35): internalization of GPR35 into the cytoplasm

Molecule: pertussis toxin [PTX, reference compound]
- effect on activation of pErk1/2 by DP7 (JAWSII cells [3]; JAWSII cells pretreated with PTX, then DP7 30 and 60 min): partially abolished
- effect of inhibitor on DP7-induced mRNA expression of transcription factors (JAWSII cells [1]): significantly suppressed
